Columns and labels:
[1] = system: HCT-116 colorectal cancer cell line; experiment: CCK-8 proliferation inhibition; format: cell-based; conditions: Homo sapiens, HCT-116, 72 h, read-out: HCT116 inhibition rate/%
In short: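 2000 cells/well, McCoy's 5A + 10% newborn bovine serum; overnight attach, 37° C./5% CO2. Cpd from DMSO stock diluted in medium, 72 h. Readout: CCK-8 (1:10). Ctrl 1‰ DMSO.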

[2] = system: methemoglobin in blood samples of three healthy volunteers; experiment: Toxicity on methemoglobin in vitro (whole blood with S9 and NADPH, absorbance at 630 nm); format: cell-based, human
Description: Because PDF inhibitors such as LBM415 and GSK1322322 can produce active species such as aromatic hydroxylamine and aromatic hydrazines in metabolic process, and cause human methemoglobinemia. To this end, continuous wavelength method was adopted in this invention to scan the absorption spectrum of blood samples in the wavelength range of 500 to 700 nm in the ultraviolet-visible spectrophotometer, and the contents of methemoglobin in blood samples of three healthy volunteers were calculated, after being effected by the synthesized compounds.
Experimental materials: Nicotinamide adenine dinucleotide phosphate (NADPH) reduction system: glucose-6-disodium phosphate, nicotinamide adenine dinucleoside phosphate and glucose-6-phosphate dehydrogenase (purchased from Shanghai yuanye Bio-Technology Co., Ltd) were added to 1 mL of phosphate buffer solution (PBS, pH 7.4), and the mixture was shaked in a shaker type water bath at 37° C. for 10 min, and then cooled to 0° C. Mixed human hepatocytes fraction S9 was purchased from Xenotech (20 mg S9 protein/1 mL suspension medium). Compounds were prepared to stock solution at a concentration of 50 mM, which was stored at −20° C. for use. Dapsone was used as positive control experimental reagent, which was purchased from Sigma Aldrich. 1% w/v triton X-100 was self-prepared. Blood samples were collected using Vacutainer tubes containing EDTA anticoagulants (BD, Franklin Lakes, USA), which were sampled from three healthy volunteers and used immediately after sampling.
Preparation of incubation system for blood samples and drugs: 250 μL of incubation system was consist of 220 μL of whole blood, 25 μL of S9 (final concentration: 2 mg S9 protein/mL incubation solution), 2.5 μL of NADPH form system (final concentration: 10 mM G-6-P, 1 mM NADP, 7.5 Units/mL) and 2.5 μL of stock solution of a compound (final concentration 500 μM). […] of incubation system was placed in an Eppendorf tube and incubated for 5 hours at 37° C. in water bath.
Determination of the content of methemoglobin: 60 μL of an incubated sample was taken and lysed with 3.0 mL of 1% Triton X-100. The content of methemoglobin (MetHb) was measured by an ultraviolet-visible spectrophotometer, with the Triton X-100 solution used as blank control. A sample was placed in a cuvette, 1 minute later, the spectrums of the sample in the wavelength range from 500 nm to 700 nm were recorded. The sample was added with 2 mg of potassium ferricyanide, and was allowed to stay stationary for 2 minutes for completely oxidization of ferrous iron in the sample, and standard spectrum of methemoglobin with saturated potassium ferricyanide. The percentage of methemoglobin formation (MetHb %) was obtained by the ratio of absorbance at 630 nm. MetHb %=(A′−AB′)/AM′, wherein, A′ was the total absorbance of the sample at 630 nm, AB′ was the base absorbance of the reduced blood in the sample at 630 nm, and AM′ was the absorbance of oxidized blood with saturated potassium ferricyanide at 630 nm.

Q: Which results are given for `CCCC[C@H](CN(O)C=O)C(=O)N1CC2(CC2)C[C@H]1C(=O)Nc1cccc(-c2cccnc2)c1` [Example 7, (S)-5-((R)-2-((N-hydroxyformamido)methyl)hexylcarbonyl)-N-(3-(pyridin-3-yl)phenyl)-5-5-azaspiro[2.4]heptane-6-amide]?
A: inhibition at 30 µM [1]: 23%; MetHb % (n = 3) ([2]; 500 μM compound, whole blood + S9 + NADPH, 5 hours at 37° C.): 2.24 ± 0.05%; probability of methemoglobin formation in blood compared with the control drugs LBM415 and GSK1322322 ([2]; toxicity test in vitro, in words): lower probability of methemoglobin formation in blood

Reference: patent publication US10738028B2, “Spiro three-membered ring, spiro five-membered ring peptide deformylase inhibitor and use thereof in antibacteria and anti-tumor” (priority 2016, dated 2020)
